Measured values as given in patent US8048683B2, “Insect repellent and process for identifying other insect repellent molecules” (Centre National de la Recherche Scientifique, priority 2006, dated 2011).

Tests used:
[1] = target: T1, DmX receptor (DmXR) (Drosophila melanogaster, UniProt Q70GQ8); test: Pharmacological test: DmXR activation in transfected HEK cells, measured by accumulation of inositol triphosphate; conditions: FIG. 1
T1 sequence (Q70GQ8 1-1073): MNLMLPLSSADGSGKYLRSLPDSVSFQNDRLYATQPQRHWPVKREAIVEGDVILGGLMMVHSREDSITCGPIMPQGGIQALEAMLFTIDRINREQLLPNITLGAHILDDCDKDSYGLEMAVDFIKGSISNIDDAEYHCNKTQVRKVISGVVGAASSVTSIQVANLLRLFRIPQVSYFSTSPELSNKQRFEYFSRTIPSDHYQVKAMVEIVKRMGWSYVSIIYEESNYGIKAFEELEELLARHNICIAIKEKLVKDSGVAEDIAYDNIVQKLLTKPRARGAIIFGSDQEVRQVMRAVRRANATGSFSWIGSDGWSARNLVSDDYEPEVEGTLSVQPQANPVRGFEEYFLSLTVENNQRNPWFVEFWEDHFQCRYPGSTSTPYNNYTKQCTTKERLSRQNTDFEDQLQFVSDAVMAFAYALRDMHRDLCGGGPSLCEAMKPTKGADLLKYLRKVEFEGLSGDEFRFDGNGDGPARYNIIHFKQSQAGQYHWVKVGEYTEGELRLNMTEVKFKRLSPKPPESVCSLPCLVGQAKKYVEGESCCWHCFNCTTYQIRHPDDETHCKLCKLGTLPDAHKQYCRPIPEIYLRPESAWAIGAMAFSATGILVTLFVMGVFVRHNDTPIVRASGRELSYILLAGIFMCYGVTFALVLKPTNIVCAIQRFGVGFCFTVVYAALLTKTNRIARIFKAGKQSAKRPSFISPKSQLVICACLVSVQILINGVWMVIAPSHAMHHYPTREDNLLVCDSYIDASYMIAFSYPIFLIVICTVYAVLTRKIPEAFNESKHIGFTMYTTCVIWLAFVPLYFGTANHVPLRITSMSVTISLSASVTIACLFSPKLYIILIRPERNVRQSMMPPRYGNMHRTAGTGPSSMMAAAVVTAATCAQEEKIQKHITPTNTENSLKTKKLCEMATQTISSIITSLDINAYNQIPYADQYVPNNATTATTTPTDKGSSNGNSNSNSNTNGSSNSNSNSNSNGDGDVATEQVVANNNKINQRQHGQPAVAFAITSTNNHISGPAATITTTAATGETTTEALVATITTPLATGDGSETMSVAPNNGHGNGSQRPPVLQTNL

[2] = test system: drosophilas; test: Gustatory choice (feeding preference) behavioral test with two dyes; format: in vivo, Drosophila melanogaster
Method: The test used measures the feeding preference in a choice with 2 possibilities materialized by two dyes, on the one hand erioglaucine (blue) and, on the other hand, sulforhodamine (red).
The erioglaucine is used at a final concentration of 5 mg/ml, dissolved in double-distilled water, pH 7.5. The sulforhodamine is used at a final concentration of 20 mg/ml, dissolved in double-distilled water, pH 7.5. The 2 dye solutions also contain sucrose fat a final concentration of 5 mM). The agonists (pH=7.5) used are added, an the final concentrations indicated on the figures, to the solution containing the erioglaucine.
To prepare a solid medium, these various compounds are added to a molten solution of agarose (0.3% final concentration, 45° C.) and deposited in a 96-well cell culture plate (Corning Incorporated, ref 3599) such that the wells alternately contain 200 μl of blue dye then 200 μl of red dye (see FIG. 4). The plates are left at ambient temperature for 2 hours in order for the agarose to solidify, and are then used for a feeding preference test.
For each behavioral test, 60 2- to 5-day-old drosophilas are deprived of food for 24 hours on cotton wool soaked with distilled water before the test and are then placed in a box containing a 96-well plate prepared as indicated above. The drosophilas are left in the dark for 2 hours, at 25° C., at a humidity of 30 to 50%. The drosophilas are then rapidly collected by anesthesia with CO2 and then frozen at −20° C. for 20 minutes. In order to determine the food intake, the flies are counted according to the color of the content of their digestive tube. The results are expressed as % of flies which have eaten a given medium relative to the total number of flies which have eaten, according to the formula: % blue=number of flies with a blue digestive tube, divided by the number of flies which have eaten (sum of the flies with a blue, violet or red digestive tube), multiplied by 100.
At least 3 independent tests were carried out for each point indicated on the figures, and the results of the tests were counted blind for the majority of the points. Only the tests in which more than […] of the flies had eaten were included in the results and in the statistical tests (T test and ANOVA). […]
The flies are counted according to the color of the content of their digestive tube.
The results are expressed as percentage of flies which have eaten a given medium, relative to the total number of flies which have eaten. % blue=N blue/(N blue+N violet+N red)×100 […]

## N=C(N)NOCC[C@H](N)C(=O)O [L-canavanine, L-2-amino-4-(guanidinooxy)butyric acid]
[1]
  in vitro activation of the DmX receptor: activated
[2]; 40 mM, 5 mM sucrose
  effect on sugary solution in behavioral test: very highly repellent
[2]; additional experiments
  concentration at which a plateau of repellent effect is reached: around 30 mM
[2]; mutant drosophilas m1 and m2 (DmXR-)
  repulsion in DmX receptor function loss mutants: no longer have any repulsion
[2]; wild-type drosophila, sugary solution (5 mM sucrose)
  repellent effect in chemosensory behavioral test: highly repellent
